In ChEMBL document CHEMBL4834466 (J Med Chem, 2021):

How the values were obtained:
[1] = Lipophilicity, logD of compound at pH 7.4; assay type: physicochemical; settings: buffer
[2] = Metabolic stability in rat Hepatocyte assessed as intrinsic clearance at 0.5 uM incubated for 60 mins by LC-MS/MS analysis; assay type: ADME, tissue-based; settings: hepatocytes, 1 h
[3] = Clearance in Wistar Han rat at 1 mg/kg, iv measured upto 7 hrs by LC-MS/MS analysis; assay type: ADME, organism-based; settings: in vivo
[4] = Volume of distribution at steady state in Wistar Han rat at 1 mg/kg, iv measured upto 7 hrs by LC-MS/MS analysis; assay type: ADME, organism-based; settings: in vivo, read-out: Vdss
[5] = Unbound clearance in Wistar Han rat at 1 mg/kg, iv measured upto 7 hrs by LC-MS/MS analysis; assay type: ADME, organism-based; settings: in vivo
[6] = Metabolic stability in dog Hepatocyte assessed as intrinsic clearance at 0.5 uM incubated for 60 mins by LC-MS/MS analysis; assay type: ADME, tissue-based, Canis lupus familiaris; settings: hepatocytes, 1 h
[7] = Metabolic stability in human Hepatocyte assessed as intrinsic clearance at 0.5 uM incubated for 120 mins by LC-MS/MS analysis; assay type: ADME, tissue-based; settings: hepatocytes, 2 h
[8] = LBF in Wistar Han rat at 1 mg/kg, iv measured upto 7 hrs by LC-MS/MS analysis; assay type: ADME, organism-based; settings: in vivo
[9] = Oral bioavailability in Wistar Han rat at 3 mg/kg measured upto 24 hrs by LC-MS/MS analysis; assay type: ADME, organism-based; settings: in vivo
[10] = Half life in Wistar Han rat at 1 mg/kg, iv measured upto 7 hrs by LC-MS/MS analysis; assay type: ADME, organism-based; settings: in vivo
[11] = Unbound clearance in Beagle dog at 0.5 mg/kg, iv measured upto 24 hrs by LC-MS/MS analysis; assay type: ADME, organism-based, Canis lupus familiaris; settings: in vivo
[12] = Volume of distribution at steady state in Beagle dog at 0.5 mg/kg, iv measured upto 24 hrs by LC-MS/MS analysis; assay type: ADME, organism-based, Canis lupus familiaris; settings: in vivo, read-out: Vdss
[13] = Oral bioavailability in Beagle dog at 0.5 mg/kg measured upto 24 hrs by LC-MS/MS analysis; assay type: ADME, organism-based, Canis lupus familiaris; settings: in vivo
[14] = LBF in Beagle dog at 0.5 mg/kg, iv measured upto 24 hrs by LC-MS/MS analysis; assay type: ADME, organism-based, Canis lupus familiaris; settings: in vivo
[15] = Half life in Beagle dog at 0.5 mg/kg, iv measured upto 24 hrs by LC-MS/MS analysis; assay type: ADME, organism-based, Canis lupus familiaris; settings: in vivo
[16] = Clearance in Beagle dog at 0.5 mg/kg, iv measured upto 24 hrs by LC-MS/MS analysis; assay type: ADME, organism-based, Canis lupus familiaris; settings: in vivo

SMILES | logD [1] | CLH [2] [mL/min/g] | also measured
CNC(=O)c1cc(C(=O)NC)c2c(c1)[C@H](c1ccccc1)[C@@H](CF)O2 | 3.3 | 3 | 
CNC(=O)c1cc(C(=O)NCCC[C@H]2OC[C@H](N)CO2)cc2c1O[C@H](CF)[C@H]2c1ccccc1 | 2.9 | 1.1 | 
CNC(=O)c1cc(C(=O)NC2CC2)cc2c1O[C@H](CF)[C@H]2c1ccccc1 | 3.9 | 3.2 | 
CNC(=O)c1cc(C(N)=O)cc2c1O[C@H](CF)[C@H]2c1ccccc1 | 2.9 |  | 
CNC(=O)c1cc(C(=O)N[C@H]2C[C@@H]2C)cc2c1OC[C@@]2(C)c1ccccc1 | 4.7 |  | 
CNC(=O)c1cc(C(=O)N[C@H]2[C@@H]3COC[C@@H]32)cc2c1OC[C@H]2c1ccc(F)cc1 | 3.6 | 14.8 | 
CNC(=O)c1cc(C(=O)NC)c2c(c1)[C@](C)(c1ccccc1)CO2 | 3.4 |  | 
CNC(=O)c1cc(C(=O)N[C@H]2[C@@H]3COC[C@@H]32)cc2c1OC[C@@]2(C)c1ccccc1 | 3.7 | 1.2 | clearance [3]: 61 mL/min/kg; Vd [4]: 1.6 L/kg; CL free [5]: 274 mL/min/kg; CLH [6]: < 0.7 mL/min/g; CLH [7]: < 0.5 mL/min/g; LBF [8]: 77%; bioavailability [9]: 54%; half-life [10]: 18 min
CNC(=O)c1cc(C(=O)N[C@H]2C[C@@H]2C)cc2c1OC[C@@]2(CO)c1ccccc1 | 3.3 | 2.7 | clearance [3]: 60 mL/min/kg; Vd [4]: 1.2 L/kg; CL free [5]: 340 mL/min/kg; CLH [6]: 1 mL/min/g; CLH [7]: < 0.5 mL/min/g; LBF [8]: 60%; bioavailability [9]: 38%; half-life [10]: 18 min
CNC(=O)c1cc(C(=O)NC2CC2)cc2c1OC[C@H]2c1ccccc1 | 3.6 | 2 | clearance [3]: 34 mL/min/kg; Vd [4]: 0.6 L/kg; CL free [5]: 723 mL/min/kg; CLH [6]: < 0.7 mL/min/g; CLH [7]: < 0.5 mL/min/g; LBF [8]: 43%; bioavailability [9]: 47%; half-life [10]: 18 min
CNC(=O)c1cc(C(=O)N[C@H]2[C@@H]3C[C@H](O)C[C@@H]32)cc2c1OC[C@@]2(C)c1ccccc1 | 3.7 | 6.4 | 
CNC(=O)c1cc(C(=O)N[C@H]2CC[C@H](O)CC2)cc2c1OC[C@@]2(C)c1ccccc1 | 3.3 |  | 
CNC(=O)c1cc(C(=O)N[C@H]2[C@@H]3COC[C@@H]32)cc2c1OC[C@H]2C1CCOCC1 | 2.1 |  | 
CNC(=O)c1cc(C(=O)N[C@H]2[C@@H]3C[C@@H](O)C[C@@H]32)cc2c1OC[C@H]2c1ccccc1 | 2.9 | 3.3 | 
CNC(=O)c1cc(C(=O)Nc2cnn(C)c2)cc2c1OC[C@H]2c1ccccc1 | 3.5 | 20.1 | 
CNC(=O)c1cc(C(=O)NC)c2c(c1)[C@H](c1ccccc1)CO2 | 3.2 |  | 
CNC(=O)c1cc(C(=O)NCCC[C@H]2OC[C@H](N)CO2)cc2c1OC[C@H]2c1ccccc1 | 2.6 |  | 
CNC(=O)c1cc(C(=O)NCCc2cnn(C)c2)cc2c1OC[C@H]2c1ccccc1 | 3.2 |  | 
CNC(=O)c1cc(C(=O)N[C@H]2[C@@H]3COC[C@@H]32)cc2c1OC[C@H]2c1ccccc1C | 4 | 30.9 | 
CNC(=O)c1cc(C(=O)NC2CC2)cc2c1OC[C@H]2c1ccc(F)cc1 | 3.8 | 6.1 | 

SMILES | logD [1] | CLH [2] [mL/min/g] | also measured
CNC(=O)c1cc(C(N)=O)cc2c1OC[C@H]2c1ccccc1 | 2.7 |  | 
CNC(=O)c1cc(C(=O)NCCc2cnn(C)c2)cc2c1OC[C@H]2c1cccc2[nH]ccc12 | 3.2 | 16.3 | 
CNC(=O)c1cc(C(=O)N[C@@H]2C[C@H]2C)cc2c1O[C@H](CF)[C@H]2c1ccccc1 | 4.5 |  | 
CNC(=O)c1cc(C(=O)N[C@H]2[C@@H]3COC[C@@H]32)cc2c1OC[C@H]2c1ccccc1 | 3.3 | 8.6 | 
CCC(=O)N1C[C@@H]2[C@H](C1)[C@H]2NC(=O)c1cc(C(=O)NC)c2c(c1)[C@H](c1ccccc1)CO2 | 3.4 | 6.8 | 
CNC(=O)c1cc(C(=O)N[C@H]2[C@@H]3C[C@@H](O)C[C@@H]32)cc2c1OC[C@@]2(C)c1ccccc1 | 3.3 | 1 | CL free [11]: 24 mL/min/kg; clearance [3]: 55 mL/min/kg; Vd [12]: 0.9 L/kg; Vd [4]: 2.3 L/kg; bioavailability [13]: 64%; CL free [5]: 260 mL/min/kg; LBF [14]: 8%; CLH [6]: < 0.7 mL/min/g; CLH [7]: < 0.5 mL/min/g; LBF [8]: 69%; half-life [15]: 174 min; clearance [16]: 5 mL/min/kg; bioavailability [9]: 32%; half-life [10]: 42 min
CNC(=O)c1cc(C(=O)NC2CC2)cc2c1OC[C@H]2c1cccc2[nH]ccc12 | 3.5 | 4.6 | 
CNC(=O)c1cc(C(=O)NC2CC2)cc2c1OC[C@H]2c1cccc(F)c1 | 3.7 | 10 | 
CNC(=O)c1cc(C(=O)NC2CC2)cc2c1OC[C@@]2(C)c1ccccc1 | 4 | 6.7 | 
CNC(=O)c1cc(C(=O)N[C@H]2[C@@H]3COC[C@@H]32)cc2c1OC[C@H]2c1cccc2[nH]ccc12 | 3.1 | 3.6 | 
CNC(=O)c1cc(C(=O)N[C@H]2[C@@H]3COC[C@@H]32)cc2c1OC[C@@]2(CO)c1ccccc1 | 2.4 | 1.4 | 
CNC(=O)c1cc(C(=O)N[C@H]2C[C@@H]2C)cc2c1OC[C@H]2c1ccccc1 | 4.5 |  | 
CC[C@@]1(c2ccccc2)COc2c(C(=O)NC)cc(C(=O)N[C@H]3[C@@H]4COC[C@@H]43)cc21 | 4.2 |  | 
CNC(=O)c1cc(C(=O)NC2CC2)cc2c1OC[C@H]2c1cccc(OC)c1 (racemic) | 3.8 |  | 
CNC(=O)c1cc(C(=O)N[C@H]2[C@@H]3COC[C@@H]32)cc2c1OC[C@H]2c1ccccn1 (racemic) | 1.6 |  | 
CNC(=O)c1cc(C(=O)N[C@H]2[C@@H]3COC[C@@H]32)cc2c1OC[C@H]2c1cccnc1 (racemic) | 1.4 |  | 
CNC(=O)c1cc(C(=O)N[C@H]2[C@@H]3COC[C@@H]32)cc2c1OC[C@H]2c1ccncc1 (racemic) | 1.3 |  | 
CNC(=O)c1cc(C(=O)N[C@H]2[C@@H]3COC[C@@H]32)cc2c1OC[C@H]2c1cccc(OC)c1 (racemic) | 3.2 |  | 
CNC(=O)c1cc(C(=O)NC2CC2)cn(Cc2ccccc2)c1=O [GSK620] | 3.1 | 1 | 
CNC(=O)c1cc(C(=O)N[C@H]2[C@@H]3COC[C@@H]32)cc2c1O[C@H](CF)[C@H]2c1ccccc1 [GSK973] | 3.6 | 1.8 | 
